Patent publication US20090209538A1, “THERAPEUTIC SUBSTITUTED LACTAMS” (ALLERGAN, INC., priority 2008, published 2009)
“Also recorded” adds a separate entry of the source.

Tested on: patients having glaucoma (lashes and adjacent hairs)
Test: Clinical observation of lash and hair growth in glaucoma patients treated in one eye
Type: in vivo, humans
Conditions: glaucoma patients treated unilaterally; treated versus control areas
From the text: In the course of treating patients having glaucoma, treatment may only be appropriate in one eye. […] The lash appearance on the lids of the treated eyes would have appeared quite attractive if it represented a bilateral phenomenon. As a result of its asymmetric nature, the long lashes on one side could be construed as disturbing from a cosmetic standpoint. A systemic examination was preformed as a result of the asymmetric phenomenon. It soon became apparent that this altered appearance was not an isolated finding. […] Definite differences could be identified to varying degrees in the lashes and adjacent hairs of all patients who were taking the drug on a unilateral basis for longer than 6 months.
The changes in the lashes were apparent on gross inspection in several patients once attention was focused on the issue. In those with light colored hair and lashes, the differences were only seen easily with the aid of the high magnification and lighting capabilities of the slit lamp biomicroscope. In the course of glaucoma follow-up examination, attention is generally immediately focused on the eye itself. As a result of the high power magnification needed only one eye is seen at a time and the eye is seen at a high enough power that the lashes are not in focus. […]

CCNC(=O)CCC/C=C\C[C@@H]1[C@@H](/C=C/[C@@H](O)CCc2ccccc2)[C@H](O)C[C@@H]1O [bimatoprost]
lash / hair growth in treated eye versus non-treated eye: longer, thicker, and fuller in the treated eye than in the non-treated eye; also recorded: hair growth is stimulated
